From publication PMC7217877, “N-AS-triggered SPMs are direct regulators of microglia in a model of Alzheimer’s disease” (Nature Communications, 2020)

How the values were obtained:
APP/PS1 mice [1] = experiment: Aβ in Lamp1+ phagolysosomes of microglia (Supplementary Fig 5a); format: in vivo, mouse; settings: N-AS vs vehicle APP/PS1
Protocol: (§1) Thioflavin S (Sigma-Aldrich) staining was carried out according to previously described procedures. We used 6E10 (mouse, 1:100, Signet, SIG39300), anti-20G10 (mouse, 1:1000, provided by D. R. Howlett, GlaxoSmithKline, Harlow, Essex, UK) for Aβ42, anti-G30 (rabbit, 1:1000, provided by D. R. Howlett) for Aβ40, SMA (mouse, 1:400, Sigma-Aldrich, A2547), AT8 (mouse, 1:500, Thermo Fisher Scientific, MN1020), Caspase-3 (mouse, 1:200, Novus Biologicals, NB100-56708), ac-S565 (rabbit, 1:100), COX2 (mouse, 1:250, Thermo Fisher Scientific, 35-8200), Iba1 (rabbit, 1:500, Wako, 019-19941 and goat, Abcam, ab5076), NeuN (mouse, 1:500, Millipore, MAB177), GFAP (rabbit, 1:500, Dako, N1506 and chicken, 1:500, Abcam, ab4674), and Lamp1 (mouse, 1:200, Abcam, ab24170). The sections were analyzed with a laser-scanning confocal microscope (FV3000; Olympus) or with a BX51 microscope (Olympus). MetaMorph software (Molecular Devices) was used to quantification. Three-dimensional reconstruction of microglia was recorded and analyzed using IMARIS software (Bitplane)[11]. For the analysis of age-dependent microglial COX2^+ CX3CR1^+ cells in WT and APP/PS1 mice, COX2 (rabbit, 1:100, Abcam, ab15191) and CX3CR1 (mouse, 1:100, BioLegend, 149008) antibody were used and the images were acquired on Alexa 488 and APC Channel with performed using Operetta CLS and Analysis Software 4.5 (Perkin-Elmer). […]

APP/PS1 mice [2] = experiment: Imaris-based morphology of microglia (Supplementary Fig 5b; Additional Fig 2); format: in vivo, mouse
Protocol: as §1

COX2 = biological target: T1, COX2 (Homo sapiens, UniProt P35354); experiment: S565 acetylation of recombinant COX2 (ac-S565 western blot, LC-MS/MS of acetylated site); format: biochemical; set-up: purchased LSBio LS-G21094; settings: 2 mM; vs naive and aspirin-treated COX2
T1 sequence (P35354 18-604): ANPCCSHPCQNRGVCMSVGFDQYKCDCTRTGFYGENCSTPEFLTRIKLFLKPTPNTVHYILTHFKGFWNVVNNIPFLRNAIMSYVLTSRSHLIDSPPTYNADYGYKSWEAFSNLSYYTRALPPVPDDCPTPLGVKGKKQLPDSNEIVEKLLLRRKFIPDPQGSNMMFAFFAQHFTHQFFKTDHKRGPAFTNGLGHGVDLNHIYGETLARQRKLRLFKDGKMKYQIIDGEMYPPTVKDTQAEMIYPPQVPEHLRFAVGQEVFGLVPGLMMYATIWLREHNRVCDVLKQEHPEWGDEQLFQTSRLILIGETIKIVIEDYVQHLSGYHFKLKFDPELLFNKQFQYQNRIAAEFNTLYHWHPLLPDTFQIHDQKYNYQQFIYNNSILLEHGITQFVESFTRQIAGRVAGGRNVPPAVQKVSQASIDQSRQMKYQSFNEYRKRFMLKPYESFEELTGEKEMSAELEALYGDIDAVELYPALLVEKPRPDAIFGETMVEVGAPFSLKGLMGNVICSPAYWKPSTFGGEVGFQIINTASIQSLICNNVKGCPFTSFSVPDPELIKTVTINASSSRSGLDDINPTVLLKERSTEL
Protocol: To identify the acetylation site of COX2, N-AS (Sigma-Aldrich, 01912)-treated COX2 enzymes (LSBio, LS-G21094) were immediately precipitated with trichroloacetic acid (Merck) and dried. The dried extract was resuspended in 10 μl of 5 M Urea solution and incubated with 1 μg sequencing-grade modified porcine trypsin (Promega) in 0.1 M ammonium bicarbonate buffer at 37 °C for 16 h. The sample was then treated with 1 M DTT (GE Healthcare) at RT for 1 h, followed by alkylation with 1 M iodoacetamide (Sigma-Aldrich) for 1 h. For sequencing, the protein samples were loaded onto a ZORBAX 300SB-C18 column (3.5 μm, 1.0 mm i.d. × 150 mm, Agilent). The column was placed in-line with an UltiMate 3000 system (Dionex, USA) and a splitter system was used to achieve a flow rate of 100 μl min^−1. Analytes were eluted with a mobile phase consisting of water: formic acid (100:0.2 v/v) (phase A) and acetonitrile: formic acid (100:0.2 v/v) (phase B) in gradient elution mode for 77 min. […]
Samples were lysed in RIPA buffer (Cell signaling Technologies), then subjected to SDS-PAGE and transferred to a nitrocellulose membrane. […] We performed densitometric quantification using the ImageJ software (National Institutes of Health). […]

ac-S565 signal in western blot of recombinant COX2 (COX2): strong ac-S565-positive signals
Compound: CCCCCCCCCCCCC/C=C/[C@@H](O)[C@H](CO)NC(C)=O [N-AS, N-((2S,3R,E)-1,3-Dihydroxyoctadec-4-en-2-yl)acetamide]
microglia containing co-stained lysosomes and Aβ (APP/PS1 mice [1]): increased number of microglia containing co-stained lysosomes and Aβ
morphology of non-plaque-associated microglia (APP/PS1 mice [2]; APP/PS1 vs N-AS-treated APP/PS1, Additional Fig. 2 of peer review file): did not differ between the groups
morphology of microglia surrounding Aβ (APP/PS1 mice [2]; N-AS vs vehicle APP/PS1): phagocytic morphology (ameboid microglial morphology) was more evident
